Consider one molecule from patent US20250099596A1, “TETRAHYDRONAPHTHALENE COMPOUND, AND PREPARATION METHOD THEREFOR AND USE THEREOF IN MEDICINE” (Jiangsu Hengrui Pharmaceuticals Co., Ltd., priority 2021, published 2025).

The structures appear in SMILES notation. Like-named read-outs stand apart in the source and are kept apart here.

The nature of the series: Pharmacokinetic evaluation, beagle test. The format is in vivo. The conditions noted are these: beagles; for AUC(0-t): read-out: Area under curve AUC0-t; for half-life: read-out: Half-life T1/2 (converted); for Cmax: read-out: Plasma concentration Cmax. The protocol: With beagles as test animals, the plasma concentrations of the compound of Example 26-1 and Comparative Example 1 were determined by LC/MS/MS at different time points after intragastric (i.g.)/intravenous (i.v.) administration to beagles. The pharmacokinetic behavior of the compound of the present disclosure in beagles was studied and its pharmacokinetic profile was evaluated.
The compound of Example 26-1 and Comparative Example 1 (see patent WO2018102725A1, Example 411), whose structure is shown below:
Sixteen beagles, of which half were male and half female, were evenly divided into 4 groups. The beagles were provided by Shanghai Medicilon Inc. The 4 groups were fasted overnight and then dosed intragastrically and intravenously.
Certain amounts of the compound of Example 26-1 and the compound of Comparative Example 1 were weighed out and mixed with 5% (v/v) DMSO+30% (v/v) PG+30% (v/v) PEG400+35% (v/v) normal saline to make 0.4 mg/mL clear solutions (for the intragastric administration groups) and 0.25 mg/mL clear solutions (for the intravenous administration groups).
The intragastric administration groups: the dose was 2.0 mg/kg, and the volume was 5.0 mL/kg.
The intravenous administration groups: the dose was 0.5 mg/kg, and the volume was 2.0 mL/kg.
The intragastric administration group: Blood (1.0 mL) was collected from the jugular vein or the forelimb vein into EDTA-K2 anticoagulation tubes before administration and 0.25 h, 0.5 h, 1.0 h, 2.0 h, 4.0 h, 6.0 h, 8.0 h, 12.0 h and 24.0 h after administration and centrifuged at 10,000 rpm for 5 min (4° C.). The plasma was separated within 1 h and stored at −80° C. before analysis. The process from blood collection to centrifugation was performed in an ice bath. Three hours after administration, feeding was resumed.
The intravenous administration groups: Blood was collected before administration and 5 min, 0.25 h, 0.5 h, 1.0 h, 2.0 h, 4.0 h, 8.0 h, 12.0 h and 24 h after administration and processed as in the intragastric administration groups.
The plasma concentrations of the test compounds were determined after administration of different concentrations of the test compounds to beagles: plasma samples (50 μL) were collected from beagles at various time points after administration, and proteins were precipitated with 500 μL of methanol (containing 100 ng/mL internal standard Verapamil) for each of the samples; the mixtures were vortexed for 1 min and centrifuged at 18,000 g for 7 min. 500 μL of supernatant was transferred to a 96-well plate. 1 μL of supernatant was collected for LC/MS/MS analysis.

Setting [1] is: both sexes, beagle, dog, plasma, iv, i.v., 0.5 mg/kg.
[2] abbreviates: both sexes, beagle, dog, plasma, po, i.g., 2.0 mg/kg.

As for `CC(C)C[C@H]1CCc2cc(O)ccc2[C@H]1c1ccc(N2CCC(CN3CCN(c4ccc5c(c4)CN([C@H]4CCC(=O)NC4=O)C5=O)CC3)CC2)cc1` [Example 26-1, (S)-3-(5-(4-((1-(4-((1R,2R)-6-Hydroxy-2-isobutyl-1,2,3,4-tetrahydronaphthalen-1-yl)phenyl)piperidin-4-yl)methyl)piperazin-1-yl)-1-oxoisoindolin-2-yl)piperidine-2,6-dione], the “Clearance CL/F” value (i.v., 0.5 mg/kg) came out at 1.7 mL/min/kg. Further, under setting [1], the AUC(0-t) stood at 4070 ng·h/mL, the half-life was 582 min and the Cmax came out at 1600 ng/mL. For the setting “both sexes, beagle, dog, plasma, po, i.g., 2.0 mg/kg, read-out: Apparent distribution volume Vz/F”, the Vd/F is 5.67 L/kg. In addition, under setting [2], the AUC(0-t) worked out at 4820 ng·h/mL, the half-life was 624 min and the Cmax came out at 436 ng/mL. Moreover, under “both sexes, beagle, dog, plasma, po, i.g., 2.0 mg/kg, read-out: Clearance CL/F”, the CL/F was found to be 6.2 mL/min/kg.
